Patent publication US7279187B2, “Mineral fortification systems” (The Procter & Gamble Company, priority 2003, dated 2007)

Test: Colour development of iron source when added to water or other aqueous solutions
Type: physicochemical
Excerpt: Such a color can change the color appearance the food or beverage to which FERROCHEL has been added. In the case of many foods and beverages, this color change would be unacceptable.

## NCC(=O)[O-].NCC(=O)[O-].[Fe+2] [FERROCHEL]
  Colour imparted when added to water: imparts relatively quickly a deep rusty yellow color
